Source: ChEMBL document CHEMBL6134863, “Novel Mitochondria-Targeted Asymmetric Heptamethine Cyanine Dye for Cancer Targeted NIR Imaging and Potent Necrosis and Senescence Induction with Prolonged Retention” (J Med Chem, 2025)
The source made the active and inactive calls. The calls are words filed in the database; no cut-off is given here.

Tests used:
[1] = Toxicity in BALB/c mouse implanted with mouse 4T1 cells assessed as survival rate at 5 mg/kg, iv measured for 11 days; type: organism-based; settings: in vivo, time 11 day
[2] = Antioxidant activity of compound in presence of RNS; type: functional
[3] = tested on: NCI-H226; assay: Induction of apoptosis in human NCI-H226 cells assessed as viable cells at 5 uM incubated for 48 hrs by Annexin V-FITC/PI staining based flow cytometry (reference value: 93.4 %); type: functional; settings: read-out: Activity
[4] = tested on: NCI-H226; assay: Induction of apoptosis in human NCI-H226 cells assessed as necrotic cells at 5 uM incubated for 48 hrs by Annexin V-FITC/PI staining based flow cytometry (reference value: 0.048 %); type: functional
[5] = Drug accumulation in tumor to muscle of BALB/c mouse implanted with mouse 4T1 cells at 0.5 mg/kg, iv measured at 4 to 168 hrs; type: ADME, organism-based; settings: in vivo, time 4-168 hrs
[6] = tested on: NCI-H226; assay: Cytotoxicity against human NCI-H226 assessed as decrease in cell viability up to 10 uM incubated for 24 hrs by CCK-8 assay; type: functional, cell-based
[7] = Antioxidant activity of compound in presence of OH; type: functional
[8] = Toxicity in BALB/c mouse implanted with mouse 4T1 cells assessed as liver damage at 5 mg/kg, iv measured for 11 days by H and E staining based analysis; type: organism-based; settings: in vivo, 264 h, time 11 day
[9] = Antioxidant activity of compound in presence of ONOO-; type: functional
[10] = Drug accumulation in BALB/c mouse tumor xenografted with human NCI-H520 cells assessed as increase in fluorescence intensity at 0.5 mg/kg, iv measured at 96 hrs by imaging based analysis; type: ADME, organism-based, Neoplasm; settings: in vivo
[11] = Antioxidant activity of compound in presence of ClO-; type: functional
[12] = tested on: NCI-H226; assay: Induction of apoptosis in human NCI-H226 cells assessed as early apoptotic cells at 5 uM incubated for 48 hrs by Annexin V-FITC/PI staining based flow cytometry (reference value: 2.93 %); type: functional
[13] = Drug uptake in human NCI-H226 cells assessed as increase in green fluorescence intensity at 5 uM incubated for 30 mins by F-actin staining staining based microscopic analysis; type: ADME, cell-based; settings: nci-h226, 0.5 h
[14] = Antioxidant activity of compound in presence of TBHP; type: functional
[15] = Distribution coefficient, logD of compound; type: physicochemical; settings: octanol/water
[16] = Antioxidant activity of compound in presence of Glutathione; type: functional
[17] = Antioxidant activity of compound in presence of Cl-; type: functional
[18] = Photostability of compound in DMSO-H2O incubated for 1 hr irradiated with deuterium lamp by absorbance based analysis; type: physicochemical; settings: read-out: Stability
[19] = Antioxidant activity of compound in presence of ROS; type: functional
[20] = Antioxidant activity of compound in presence of Fe3+; type: functional
[21] = Antioxidant activity of compound in presence of HSO3-; type: functional
[22] = Cytotoxicity against human Primary lung fibroblast assessed as decrease in cell viability up to 10 uM incubated for 24 hrs by CCK-8 assay; type: toxicity, cell-based
[23] = Antioxidant activity of compound in presence of […]; type: functional
[24] = Antioxidant activity of compound in presence of Br-; type: functional
[25] = Ratio of drug level in tumor to muscle of BALB/c mouse implanted with mouse 4T1 cells at 0.5 mg/kg, iv measured at 12 to 24 hrs; type: ADME, organism-based; settings: in vivo, time 12-24 hrs
[26] = Drug accumulation in BALB/c mouse tumor implanted with mouse 4T1 cells assessed as increase in fluorescence intensity at 0.5 mg/kg, iv measured at 48 hrs by imaging based analysis; type: ADME, organism-based, Neoplasm; settings: in vivo
[27] = Stability of compound in DMSO-H2O incubated for 1 hr by absorbance based analysis; type: physicochemical
[28] = Toxicity in BALB/c mouse implanted with patient-derived Squamous carcinoma cell line assessed as change in body weight at 0.5 mg/kg, iv measured for 5 days; type: organism-based; settings: in vivo, 120 h, time 5 day
[29] = tested on: NCI-H226; assay: Induction of apoptosis in human NCI-H226 cells assessed as late apoptotic cells at 5 uM incubated for 48 hrs by Annexin V-FITC/PI staining based flow cytometry (reference value: 3.61 %); type: functional
[30] = Drug accumulation in BALB/c mouse plasma xenografted with human NCI-H520 cells assessed as increase in fluorescence intensity at 0.5 mg/kg, iv measured at 96 to 120 hrs by imaging based analysis; type: ADME, organism-based; settings: in vivo, time 96-120 hrs
[31] = Drug uptake in mouse 4T1 cells assessed as increase in green fluorescence intensity at 5 uM incubated for 30 mins by F-actin staining staining based microscopic analysis; type: ADME, cell-based; settings: 4t1, 0.5 h
[32] = Drug uptake in human NCI-H226 cells assessed as increase in red fluorescence intensity at 5 uM incubated for 30 mins by CY7 staining based microscopic analysis; type: ADME, cell-based; settings: nci-h226, 0.5 h
[33] = Antioxidant activity of compound in presence of RSS; type: functional
[34] = Antioxidant activity of compound in presence of L-Cysteine; type: functional
[35] = Antioxidant activity of compound in presence of H2O2-; type: functional
[36] = Antioxidant activity of compound in presence of HCHO; type: functional
[37] = tested on: NCI-H226; assay: Induction of DNA damage in human NCI-H226 cells assessed as increase in gamma-H2AX level at 5 uM incubated for 24 hrs by immunofluorescence analysis; type: functional, cell-based
[38] = tested on: NCI-H250; assay: Antitumor activity against human […] cells xenografted in BALB/c mouse assessed as tumor growth inhibition 0.5 mg/kg, iv measured for 5 days; type: functional, organism-based; settings: time 5.0 day
[39] = tested on: 4T1; assay: Antitumor activity against mouse 4T1 cells implanted in BALB/c mouse assessed as tumor growth inhibition 5 mg/kg, iv measured for 11 days; type: functional; settings: 4T1, 264 h, time 11 day, read-out: TGI
[40] = Toxicity in BALB/c mouse implanted with mouse 4T1 cells assessed as heart damage at 5 mg/kg, iv measured for 11 days by H and E staining based analysis; type: organism-based; settings: in vivo, 264 h, time 11 day
[41] = Antioxidant activity of compound in presence of HCO3-; type: functional
[42] = Drug uptake in mouse 4T1 cells assessed as increase in red fluorescence intensity at 5 uM incubated for 30 mins by CY7 staining based microscopic analysis; type: ADME, cell-based; settings: 4t1, 0.5 h
[43] = tested on: Mitochondrial membrane; assay: Induction of mitochondrial membrane potential loss in human NCI-H226 cells; type: cell membranes
[44] = Drug accumulation in BALB/c mouse plasma implanted with mouse 4T1 cells assessed as increase in fluorescence intensity at 0.5 mg/kg, iv measured at 96 to 120 hrs by imaging based analysis; type: ADME, organism-based; settings: in vivo, time 96-120 hrs
[45] = Antioxidant activity of compound in presence of NO2; type: functional
[46] = Drug localization in mitochondria of human NCI-H226 cell by MitoTracker Red based NIR confocal microscopic analysis; type: ADME
[47] = Antioxidant activity of compound in presence of Ca2+; type: functional
[48] = Drug accumulation in BALB/c mouse tumor implanted with mouse 4T1 cells assessed as increase in fluorescence intensity at 0.5 mg/kg, iv measured at 96 hrs by DAPI staining based fluorescence microscopic analysis; type: ADME, organism-based, Neoplasm; settings: in vivo

For CCCN1/C(=C/C=C2\CCCC(/C=C/C3=[N+](Cc4ccc(C(=O)O)cc4)c4ccccc4C3(C)C)=C2Cl)C(C)(C)c2ccccc21.[Br-], the survival at 264 h [1] was 100%, the Activity [2] was “Active” and the viability at 5 µM [3] was 26.3%. For the same molecule, the Activity [4] was 58.9%, the Drug uptake [5] was “Active” and the Activity [6] was “Active”. For the same molecule, the Activity [7] was “Active”, the Activity [8] was “Non-toxic” and the Activity [9] was “Active”. The Drug uptake [10] was “Active”, the Activity [11] was “Active” and the Activity [12] was 0.82%. For the same molecule, the Drug uptake [13] was “Active”, the Activity [14] was “Active” and the logD [15] was 4.49. For the same molecule, the Activity [16] was “Active”, the Activity [17] was “Active” and the remaining at 1 h [18] was 95.8%. For the same molecule, the Activity [19] was “Active”, the Activity [20] was “Active” and the Activity [21] was “Active”. The Activity [22] was “Non-toxic”, the Activity [23] was “Active” and the Activity [24] was “Active”. For the same molecule, the Ratio [25] was over 5, the Drug uptake [26] was “Active” and the Stability [27] was “Stable”. For the same molecule, the Activity [28] was “Non-toxic”, the Activity [29] was 14% and the Drug uptake [30] was “Active”. The Drug uptake [31] was “Active”, the Drug uptake [32] was “Active” and the Activity [33] was “Active”. The Activity [34] was “Active”, the Activity [35] was “Active” and the Activity [36] was “Active”. For the same molecule, the Activity [37] was “Active”, the TGI [38] was “Active” and the inhibition in vivo at 5 mg/kg [39] was about 60%. For the same molecule, the Activity [40] was “Non-toxic”, the Activity [41] was “Active” and the Drug uptake [42] was “Active”. The Activity [43] was “Active”, the Drug uptake [44] was “Active” and the Activity [45] was “Active”. The Drug uptake [46] was “Active”, the Activity [47] was “Active” and the Drug uptake [48] was “Active”.
